Reference: article PMC4935942, “Efficient Inhibition of Hepatitis B Virus Infection by a preS1-binding Peptide” (Scientific Reports, 2016)
Read-outs that look alike come from different tables or passages of the source. Where no end group is shown, it is not given here.

What was measured:
preS1/2-48^myr = assay: preS1/2-48^myr-FITC binding to immobilized N-biotinylated B10 monomer/concatemers; design: species or system HBV (genotype D); settings: N-biotinylated peptide 2 μg/well on streptavidin-coated wells; 1 h at room temperature; fluorescence
Protocol: (§1) The N-biotinylated B10 monomer or concatemers (Fig. 1A) (2 μg/well) was applied into the streptavidin-coated wells and incubated for 45 minutes at room temperature. Wells were washed with PBST (0.05% Tween 20 in PBS). […] Excess preS1/2-48^myr-FITC peptides were removed with PBST. Fluorescence intensity was then measured using a VICTOR X multilabel reader (Perkin Elmer, Waltham, MA). In virus capture assays, 1 × 10^6 viruses from pooled HBV positive serum (Ruijin Hospital, Shanghai) were applied per well. After incubation at 4 °C for 4 hours, wells were washed and 100 μl of horseradish peroxidase-labeled HBsAg antibody (Kehua, Shanghai, China) was added and incubated for 1 hour at room temperature. The absorbance at 450 nm was measured.

HBV particles = assay: HBV virus capture assay; assay type: binding, Hepatitis B virus; settings: 1 × 10^6 viruses per well from pooled HBV positive serum; 4 °C for 4 h; HRP-labeled HBsAg antibody, absorbance at 450 nm
Protocol: as §1

[1] = test system: binding of preS1/2-48^myr-FITC to PMH; assay: Inhibition of preS1/2-48^myr-FITC binding to PMH; assay type: cell-based, mouse (C57BL/6); settings: 0.5 μM preS1/2-48^myr-FITC, 100 μM peptide (200-fold molar excess), 4 h at 37 °C; confocal microscopy
Protocol: PMH and HepG2 cells were seeded into 12-well plates at a density of 1 × 10^5 cells per well and cultured in WEM and DMEM without FBS respectively. […] Cell nuclei were stained with DAPI (4′6′-diamidino-2-phenylindole) (Sangon, Shanghai, China) for 10 minutes at room temperature. Cells were examined using a confocal microscope (Leica Biosystems, Germany).

HBV attachment to PMH [2] = assay: HBV attachment to PMH (real-time PCR); assay type: cell-based, Hepatitis B virus; settings: 1 × 10^7 GE/well viruses pre-incubated 30 min at 37 °C, 4 h at 37 °C, triplicate, repeated at least three times
Protocol: (§2) For HBV attachment assays, viruses in HepAD38 supernatants were precipitated in 10% polyethylene glycol (PEG) 8000 (Sangon) for 16 hours at 4 °C, centrifuged at 7,000 × g for 1 hour at 4 °C and resuspended in DMEM. Viral titers were determined using a real-time PCR kit (Qiagen, Düsseldorf, Germany) and represented as genome equivalent per milliliter (GE/ml). […] After incubation at 37 °C for 4 hours, cells were washed repeatedly with ice-cold PBS. Viral DNA was prepared from cell lysate with DNeasy Blood Kit (Qiagen) and quantified using real-time PCR with primers 5′-[…] -3′ and 5′-[…] -3′.

HBV attachment to PMH [3] = assay: HBV attachment to PMH (immunofluorescent staining of cell-bound HBsAg); assay type: cell-based, Hepatitis B virus; settings: 1 μM; immunofluorescence
Protocol: as §2
(§3) PHH at 14 days post infection and PTH at 12 days post infection were washed 3 times with ice-cold PBS and fixed in 3.7% paraformaldehyde in PBS for 15 min at room temperature. Cells were washed, permeabilized with 0.5% Triton X-100 in PBS, washed again and incubated in 1% BSA in PBST for 30 minutes at room temperature. Cells were then stained with a polyclonal rabbit anti-HBcAg (1:700 dilution, Dako, Inc, Carpinteria, CA) overnight at 4 °C in a humidified chamber. After washing, PHH and PTH were incubated with Alexa Fluor 488 goat anti-rabbit IgG (H+L) and Alexa Fluor 546 goat anti-rabbit IgG (H+L) (1:1000 dilution, Life Technologies, USA) for 1 hour at room temperature in dark, respectively. After 3 washes in dark, cells were stained with DAPI for 10 minutes at room temperature. […]

[4] = test system: HBV attachment to HepG2 cells; assay: HBV attachment to HepG2 cells; assay type: cell-based, Hepatitis B virus; settings: real-time PCR and immunofluorescent staining of HBsAg; viruses pre-incubated with 4B10 0.1 nM, 10 nM or 1 μM
Protocol: as §2, §3

HBV infection of PTH [5] = assay: Intracellular HBcAg expression in HBV-infected PTH (immunofluorescence); assay type: cell-based, Hepatitis B virus; settings: day 12 post-infection
Protocol: (§4) All infections were repeated at least twice.
(§5) PHH at 14 days post infection and PTH at 12 days post infection were washed 3 times with ice-cold PBS and fixed in 3.7% paraformaldehyde in PBS for 15 min at room temperature. Cells were washed, permeabilized with 0.5% Triton X-100 in PBS, washed again and incubated in 1% BSA in PBST for 30 minutes at room temperature. Cells were then stained with a polyclonal rabbit anti-HBcAg (1:700 dilution, Dako, Inc, Carpinteria, CA) overnight at 4 °C in a humidified chamber. After washing, PHH and PTH were incubated with Alexa Fluor 488 goat anti-rabbit IgG (H+L) and Alexa Fluor 546 goat anti-rabbit IgG (H+L) (1:1000 dilution, Life Technologies, USA) for 1 hour at room temperature in dark, respectively. After 3 washes in dark, cells were stained with DAPI for 10 minutes at room temperature. For detection of HBV attached to PMH and HepG2 cells, cells were stained with a mouse monoclonal anti-HBsAg (1:1000 dilution, Dako) followed by Alexa Fluor 488 goat anti-mouse IgG (H+L) (1:1000 dilution, Life Technologies). Cells were examined under a confocal microscope (Leica Biosystems).

HBV infection of PHH [6] = assay: Intracellular HBcAg expression in HBV-infected PHH (immunofluorescence); assay type: cell-based, Hepatitis B virus; settings: day 14 post-infection
Protocol: as §4, §5

[7] = test system: VSV-G pseudotyped lentivirus; assay type: cell-based
PMH = settings: 4B10 0.01 μM, 1 μM and 100 μM, or LA-20; 72 h; CCK-8
Protocol: (§6) To rule out potential cytotoxicity of the peptides, the viability of cells exposed to 4B10 (0.01 μM, 1 μM and 100 μM) or LA-20 for 72 hours was analyzed.
(§7) For PTH, cells were cultured in medium containing 4B10 and LA-20 (0.01 μM, 1 μM or 100 μM) and viability measured using cell counting kit-8 (CCK-8) (Dojindo, Japan).

HepG2 cells = settings: 4B10 0.01 μM, 1 μM and 100 μM, or LA-20; 72 h; CCK-8
Protocol: as §6, §7

HBV infection of PTH [8] = test system: HBV infection of PTH
Protocol: (§8) Freshly isolated PTH were seeded into collagen-coated 6-well plates (BD Biosciences, San Jose, CA) and maintained in Hepato-Stim Hepatocyte Defined medium (HDM) (BD Biosciences) at 5 × 10^5 cells per well. Twenty-four hours post-seeding, PTH were infected with concentrated viruses prepared from HepAD38 supernatants (genotype D) at a multiplicity of infection (MOI) of 100 GE per cell. […] After incubation at 37 °C overnight, cells were washed 5 times with PBS and cultivated for 12 days. For HBV infection of PHH, freshly prepared PHH were seeded into collagen-coated wells in supplemented WEM at 5 × 10^5 cells per well. […] PTH and PHH culture media were changed every two days, and hepatitis B surface antigen (HBsAg) and e antigen (HBeAg) in collected supernatants were determined using enzyme linked immunosorbent assay (ELISA) kits (Kehua). All infections were repeated at least twice.

PHH = settings: 0.05 nM to 500 μM; 24 h; CellTiter-Glo
Protocol: PHH and PTH were seeded into collagen-coated 96-well plates at 5 × 10^4 cells per well.

HIV-1 = settings: TZM-bl cells; strains B12 and SH1.81, 200 TCID50; 4B10 up to 100 μM; luciferase, 48 h post infection
Protocol: The infection of two strains of tat-expressing, replication deficient HIV-1, B12 and SH1.81, was tested on TZM-bl cells harboring HIV-1 LTR-luciferase reporter[30]. Envelope proteins of B12 and SH1.81 were derived from HIV-1 B and A/E recombinant subtype, respectively. […] Forty-eight hours post infection, intracellular luciferase activity was measured with a luciferase assay kit (Promega, Madison, WI).

HBV infection of PHH [9] = assay: HBV infection of primary human hepatocytes; settings: for IC50: pooled patient sera (genotypes B and C), MOI 400, day 14 post infection, ELISA, printed with 'about'
Protocol: as §8

[10] = test system: primary mouse hepatocytes (PMH); assay: Flow cytometry binding of FITC-labelled peptides to PMH; settings: discussion; Fig. 3A
[11] = PTH, 4B10 0.01-100 nM or LA-20 100 nM, ELISA

## LRNIRLRNIRLRNIRLRNIR [4B10]
preS1/2-48^myr
  preS1-binding activity (preS1/2-48^myr-FITC): showed the highest binding activity
HBV particles
  HBV-binding activity: showed the highest binding activity
[1]
  inhibition of binding of preS1/2-48^myr-FITC to PMH: completely blocked
HBV attachment to PMH [2]; 0.1 nM
  reduction of PMH-associated virions: 39%
HBV attachment to PMH [2]; 10 nM
  reduction of PMH-associated virions: 56%
HBV attachment to PMH [2]; 1 μM
  reduction of PMH-associated virions: 74%
HBV attachment to PMH [3]
  HBV attachment to PMH (HBsAg staining): markedly reduced
[4]
  HBV attachment to HepG2 cells: inhibited HBV attachment to HepG2 cells
HBV infection of PTH [5]
  post-infection HBcAg expression: dose-dependent decrease in post-infection HBcAg expression
HBV infection of PHH [6]
  post-infection HBcAg expression: dose-dependent decrease in post-infection HBcAg expression
[7]
  inhibitory effect on infection of VSV-G pseudotyped lentivirus: no inhibitory effect
PMH
  cytotoxic effect on PMH: No notable cytotoxic effect
HepG2 cells
  cytotoxic effect on HepG2 cells: No notable cytotoxic effect
HBV infection of PTH [8]
  inhibition of HBV infection of primary tupaia hepatocytes: low nanomolar concentrations
HBV infection of PTH [8]; [11]
  effect on post-infection HBeAg expression: dose-dependent decrease
  effect on post-infection HBsAg expression: dose-dependent decrease
HBV infection of PTH [8]; infection of PTH
  IC50: 0.1 to 1 nM
HBV infection of PTH [8]; viruses derived from HepAD38 cells
  inhibition of infection by genotype D viruses: could inhibit the infection of genotype B and C viruses from HBV-infected patients as well as genotype D viruses
PHH
  cytotoxic effect on PHH: No cytotoxicity was observed
HIV-1
  inhibitory effect on infection of HIV-1: no inhibitory effect
HBV infection of PHH [9]; PHH, 4B10 0.05-500 nM
  inhibition of HBV infection (in words): Dose-dependent and efficient inhibition of HBV infection
HBV infection of PHH [9]; abstract
  inhibition of HBV infection of primary human hepatocytes: low nanomolar concentrations
HBV infection of PHH [9]; read-out: IC50 based on HBeAg measurement, PHH
  IC50: 0.5 to 5 nM
HBV infection of PHH [9]; read-out: IC50 based on HBsAg measurement, PHH
  IC50: 0.05 to 0.5 nM
HBV infection of PHH [9]; viruses from HBV-infected patients
  inhibition of infection by genotype B and C viruses: could inhibit the infection of genotype B and C viruses
[10]
  binding to primary hepatocytes: does not bind
